{"source": "ChEMBL document CHEMBL1201862", "about": "“PubChem BioAssay data set” (2004)", "key": {"[1]": {"assay": "OVCAR-3 cell viability loss – plate reader, dry powder samples, PAX8 inhibitor project, dose response (AID 743044)", "type": "functional, cell-based"}, "[2]": {"assay": "general cell-killing toxicity readout – plate reader, dry powder samples, cytotoxicity control for PAX8 inhibitor project, dose response (AID 743021)", "type": "functional, cell-based"}, "[3]": {"target": "Paired box protein Pax-8 (Homo sapiens, UniProt Q06710)", "sequence (Q06710 whole entry)": "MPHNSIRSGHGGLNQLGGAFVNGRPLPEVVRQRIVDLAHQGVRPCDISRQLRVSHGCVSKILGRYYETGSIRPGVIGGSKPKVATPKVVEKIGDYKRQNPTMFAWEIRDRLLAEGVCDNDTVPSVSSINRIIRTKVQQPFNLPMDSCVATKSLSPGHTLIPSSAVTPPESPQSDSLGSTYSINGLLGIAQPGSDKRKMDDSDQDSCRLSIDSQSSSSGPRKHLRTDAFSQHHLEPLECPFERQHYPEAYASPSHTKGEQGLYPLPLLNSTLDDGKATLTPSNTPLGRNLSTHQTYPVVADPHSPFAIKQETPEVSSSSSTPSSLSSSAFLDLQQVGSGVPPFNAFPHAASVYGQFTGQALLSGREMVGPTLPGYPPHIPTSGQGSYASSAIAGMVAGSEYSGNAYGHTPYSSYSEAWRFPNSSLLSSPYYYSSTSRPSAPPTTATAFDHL", "assay": "PAX8 transcriptional activity inhibition in RMG-I – RMG-I cells, luciferase, cherry-pick, dose response (AID 687027);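 note: luciferase reporter driven by Pax8 target thyroperoxidase promoter measured by SteadyGlo luminescence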", "type": "functional, cell-based"}, "[4]": {"assay": "OVCAR8 cell viability loss – plate reader, dry powder samples, PAX8 project, dose response (AID 743197)", "type": "functional, cell-based", "conditions": "OVCAR-8"}, "[5]": {"assay": "IGROV1 cell killing – plate reader, dry powder samples, PAX8 inhibitor project, dose response (AID 743043)", "type": "functional, cell-based", "conditions": "IGROV-1"}, "[6]": {"assay": "A cytotoxicity screen of small molecule inhibitors of the PhoP region in Salmonella typhi identified in the primary screen. [Related pubchem assays: 1850, 1864, 1985 ]", "type": "functional"}, "[7]": {"assay": "potency of ADAM10 substrate cleavage blockers – biochemical, QFRET, dose response (AID 743254);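 note: ADAM10 enzyme with the DM2 quenched FRET peptide as substrate; EDANS fluorescence gain as the protease cuts the substrate; inhibitor potency against ADAM10 proteolytic activity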"}, "[8]": {"target": "Disintegrin and metalloproteinase domain-containing protein 17 (Homo sapiens, UniProt P78536)", "sequence (P78536 whole entry, the tested form may be a part)": "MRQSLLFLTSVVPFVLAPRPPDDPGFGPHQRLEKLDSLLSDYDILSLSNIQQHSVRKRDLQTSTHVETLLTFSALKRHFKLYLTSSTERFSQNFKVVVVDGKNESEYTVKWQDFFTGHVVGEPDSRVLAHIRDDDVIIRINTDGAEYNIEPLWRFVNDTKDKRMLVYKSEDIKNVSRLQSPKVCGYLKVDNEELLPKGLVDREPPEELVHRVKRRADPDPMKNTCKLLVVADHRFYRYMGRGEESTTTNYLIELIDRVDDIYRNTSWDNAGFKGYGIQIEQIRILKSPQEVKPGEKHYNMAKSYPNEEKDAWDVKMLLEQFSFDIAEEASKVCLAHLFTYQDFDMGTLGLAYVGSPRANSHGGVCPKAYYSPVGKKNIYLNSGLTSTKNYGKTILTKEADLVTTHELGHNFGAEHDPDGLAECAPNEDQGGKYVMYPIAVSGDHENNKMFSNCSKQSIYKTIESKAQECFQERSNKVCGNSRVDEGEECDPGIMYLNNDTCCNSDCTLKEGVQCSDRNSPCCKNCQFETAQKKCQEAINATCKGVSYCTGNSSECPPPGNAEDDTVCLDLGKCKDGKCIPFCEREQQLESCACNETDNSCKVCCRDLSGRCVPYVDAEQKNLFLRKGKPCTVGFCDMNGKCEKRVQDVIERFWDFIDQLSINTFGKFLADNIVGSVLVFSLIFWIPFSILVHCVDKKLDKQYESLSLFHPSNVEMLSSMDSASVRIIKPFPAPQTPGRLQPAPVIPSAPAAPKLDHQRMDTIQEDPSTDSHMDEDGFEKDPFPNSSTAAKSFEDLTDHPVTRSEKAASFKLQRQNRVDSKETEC", "assay": "inhibition of ADAM17 substrate cleavage – biochemical, quenched FRET substrate, counter-screen for ADAM10 exosite inhibitor project, dose response (AID 743253)"}, "[9]": {"assay": "blockade of melanocortin 4 receptor signaling – cell-based, plate reader, cherry pick, counter-screen for LGR2 antagonist project, dose response (AID 743444);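 note: transfected HEK 293 cells stimulated with alpha-MSH peptide; potency of inhibitors of the alpha-MSH evoked signal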", "type": "functional"}, "[10]": {"assay": "toxicity toward HepG2 liver cells – cell-based, plate reader, cherry-pick, antagonist series, cytotoxicity control, dose response (AID 743416)", "type": "functional"}, "[11]": {"assay": "blockers of bursicon-stimulated LGR2 cAMP reporter – cell-based, HEK293, CRE-luciferase reporter, cherry pick, set 2, dose response (AID 743343);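 note: transfected cells were stimulated with diluted bursicon conditioned medium after compound addition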", "type": "functional"}, "[12]": {"assay": "A549 cell cytotoxicity, dose response, cytotoxicity control, plate reader, cherry-pick, antagonist series (AID 743412)", "type": "functional, cell-based"}, "[13]": {"assay": "viability loss in HEK293 cells – cell-based, plate reader, cherry-picked samples, cytotoxicity control, dose response (AID 743446)", "type": "functional"}, "[14]": {"target": "T1, Tyrosine-protein phosphatase non-receptor type 7 (Homo sapiens, UniProt P35236)", "T1 sequence (P35236 whole entry)": "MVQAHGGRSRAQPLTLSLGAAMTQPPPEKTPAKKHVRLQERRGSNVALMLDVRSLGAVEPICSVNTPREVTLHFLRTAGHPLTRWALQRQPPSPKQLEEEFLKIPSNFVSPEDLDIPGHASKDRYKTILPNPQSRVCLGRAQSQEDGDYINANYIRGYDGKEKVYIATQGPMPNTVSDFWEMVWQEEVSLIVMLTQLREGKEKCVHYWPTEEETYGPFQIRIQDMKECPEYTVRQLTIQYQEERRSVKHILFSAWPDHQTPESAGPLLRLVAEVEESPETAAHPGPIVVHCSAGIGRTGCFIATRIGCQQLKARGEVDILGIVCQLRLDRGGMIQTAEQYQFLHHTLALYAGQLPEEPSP", "assay": "HePTP tyrosine phosphatase activity blockers – biochemical, absorbance, leukemia target, primary screen (AID 521)", "type": "functional"}, "[15]": {"target": "Prothrombin (Homo sapiens, UniProt P00734)", "assay": "Thrombin 1536 HTS Dose Response Confirmation. [Related pubchem assays: 1046 (Thrombin 1536 HTS; hits were confirmed in this assay)]", "type": "functional"}, "[16]": {"assay": "Trypanosoma cruzi growth suppression in host cells – NIH3T3 host cells, beta-gal luminescence, confirmation (AID 2044);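 note: intracellular parasites grown in NIH/3T3 mouse fibroblasts as host cells; luminescent beta-galactosidase reporter signal from transgenic T. cruzi replicating inside host cells; inhibitors lower the luminescence signal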", "type": "functional, cell-based"}, "[17]": {"assay": "NIH3T3 cell viability loss – ATP luminescence, mouse fibroblasts, counter-screen, dose response (AID 2010);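 note: cells exposed to compound for about 90 hours before reading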", "type": "functional, cell-based"}, "[18]": {"assay": "viability of HCT116 lacking mutant beta-catenin – cell-based, human colon tumor, dose response (AID 1045);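 note: HCT116 colon tumor cells with beta catenin knocked out; cells exposed to compound for 60 hours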", "type": "functional"}, "[19]": {"assay": "viability of PTEN-deleted HCT116 cells – cell-based, HCT116 PTEN knockout, dose response (AID 1047);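 note: HCT116 colon tumor cells with PTEN knocked out; cells exposed to compound for 60 hours before readout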", "type": "functional"}, "[20]": {"target": "T2, fMet-Leu-Phe receptor (Homo sapiens, UniProt P21462)", "T2 sequence (P21462 whole entry)": "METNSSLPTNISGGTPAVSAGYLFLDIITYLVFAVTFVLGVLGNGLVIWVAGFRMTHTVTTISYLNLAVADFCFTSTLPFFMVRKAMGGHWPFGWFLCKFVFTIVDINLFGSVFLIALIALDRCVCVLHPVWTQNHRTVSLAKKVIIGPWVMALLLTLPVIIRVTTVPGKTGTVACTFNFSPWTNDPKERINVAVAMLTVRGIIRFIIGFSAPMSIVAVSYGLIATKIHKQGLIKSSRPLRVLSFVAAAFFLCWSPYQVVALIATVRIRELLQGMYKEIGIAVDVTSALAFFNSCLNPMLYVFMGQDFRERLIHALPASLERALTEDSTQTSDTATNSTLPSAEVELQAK", "assay": "formyl peptide receptor binders – dose response (AID 519)", "type": "functional"}, "[21]": {"target": "T3, Cytochrome P450 1A2 (Homo sapiens, UniProt P05177)", "T3 sequence (P05177 whole entry)": "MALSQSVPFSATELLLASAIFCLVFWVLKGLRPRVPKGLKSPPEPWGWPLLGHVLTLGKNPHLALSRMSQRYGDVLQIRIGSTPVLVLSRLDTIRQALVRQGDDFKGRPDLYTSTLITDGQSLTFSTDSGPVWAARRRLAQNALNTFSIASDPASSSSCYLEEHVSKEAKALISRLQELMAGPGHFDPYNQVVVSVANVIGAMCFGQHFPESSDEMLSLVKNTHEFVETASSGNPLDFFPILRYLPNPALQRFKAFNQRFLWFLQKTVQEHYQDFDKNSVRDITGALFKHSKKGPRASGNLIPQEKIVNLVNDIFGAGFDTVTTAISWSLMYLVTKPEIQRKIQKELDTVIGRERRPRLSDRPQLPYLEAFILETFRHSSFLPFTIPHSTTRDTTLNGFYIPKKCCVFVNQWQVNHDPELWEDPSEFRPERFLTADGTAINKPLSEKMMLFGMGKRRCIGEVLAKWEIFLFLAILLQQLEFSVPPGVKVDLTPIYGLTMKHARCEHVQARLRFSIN"}, "[22]": {"target": "Cytochrome P450 3A4 (Homo sapiens, UniProt P08684)", "sequence (P08684 whole entry)": "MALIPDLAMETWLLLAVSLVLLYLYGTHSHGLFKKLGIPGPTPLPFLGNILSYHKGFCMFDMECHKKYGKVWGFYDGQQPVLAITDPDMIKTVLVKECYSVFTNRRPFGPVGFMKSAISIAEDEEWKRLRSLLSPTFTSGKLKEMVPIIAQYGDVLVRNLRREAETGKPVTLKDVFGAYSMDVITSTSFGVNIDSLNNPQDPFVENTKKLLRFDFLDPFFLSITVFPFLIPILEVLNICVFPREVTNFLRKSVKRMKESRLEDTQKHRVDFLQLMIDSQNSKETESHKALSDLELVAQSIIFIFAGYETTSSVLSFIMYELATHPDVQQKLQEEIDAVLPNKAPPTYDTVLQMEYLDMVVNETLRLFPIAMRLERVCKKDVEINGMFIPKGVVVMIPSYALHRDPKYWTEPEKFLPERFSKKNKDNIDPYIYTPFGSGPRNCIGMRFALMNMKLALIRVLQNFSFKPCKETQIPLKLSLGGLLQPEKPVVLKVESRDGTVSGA"}}, "note": "The source made the active and inactive calls."}
{"smiles": "CCS(=O)(=O)N1CC(=O)N2[C@H](CO)[C@@H](c3ccc(-c4ccccc4F)cc3)[C@H]2C1", "values": [{"measurement": "AC50", "setting": "[1]", "value": "14.1 µM (active)"}, {"measurement": "AC50", "setting": "[2]", "value": "60.5 µM (active)"}, {"measurement": "AC50", "setting": "[3]", "value": "5.26 µM (active)"}, {"measurement": "AC50", "setting": "[4]", "value": "63 µM (active)"}, {"measurement": "AC50", "setting": "[5]", "value": "28.6 µM (active)"}]}
{"smiles": "CC(C)(C)n1nc2c(c1NC(=O)Cc1cccs1)CSC2", "values": [{"measurement": "EC50", "setting": "[6]", "value": "> 50 µM (active)"}]}
{"smiles": "C=CCC[C@@H](Cc1ccc(F)cc1)C(=O)OC[C@H](Cc1c[nH]c2ccccc12)NC(=O)[C@H](CC=C)CC(=O)N(CCO)Cc1ccccc1", "values": [{"measurement": "IC50", "setting": "[7]", "value": "5.38 µM (active)"}, {"measurement": "IC50", "setting": "[8]", "value": "> 69.5 µM (inactive)"}]}
{"smiles": "Cc1cc(F)ccc1C(O)c1nc(-c2cccc(OCc3ccccc3)c2)c[nH]1", "note": "(configuration not stated)", "values": [{"measurement": "IC50", "setting": "[7]", "value": "13.9 µM (inactive)"}, {"measurement": "IC50", "setting": "[8]", "value": "> 69.5 µM (inactive)"}]}
{"smiles": "N#C[C@H]1[C@H](c2ccc(C#Cc3ccccc3F)cc2)[C@H](CO)N1C(=O)C1CCC1", "values": [{"measurement": "AC50", "setting": "[9]", "value": "14.7 µM (active)"}, {"measurement": "AC50", "setting": "[1]", "value": "23.8 µM (active)"}, {"measurement": "AC50", "setting": "[10]", "value": "32.2 µM (active)"}, {"measurement": "AC50", "setting": "[2]", "value": "21.9 µM (active)"}, {"measurement": "AC50", "setting": "[3]", "value": "11.1 µM (active)"}, {"measurement": "AC50", "setting": "[11]", "value": "11.4 µM (active)"}, {"measurement": "AC50", "setting": "[12]", "value": "29.7 µM (active)"}, {"measurement": "AC50", "setting": "[13]", "value": "17.9 µM (active)"}]}
{"smiles": "CCOc1ccccc1-n1c(SCC(=O)NC(C)(C)C)nnc1-c1ccoc1C", "values": [{"measurement": "IC50", "setting": "[14]", "value": "> 100 µM (not active)"}]}
{"smiles": "C[C@@H]1CCCCO[C@@H](CN(C)Cc2ccc(Cl)c(Cl)c2)[C@@H](C)CN([C@@H](C)CO)C(=O)c2cc(NC(=O)Nc3ccccc3)ccc2O1", "values": [{"measurement": "AC50", "setting": "[1]", "value": "30.2 µM (active)"}, {"measurement": "AC50", "setting": "[3]", "value": "4.6 µM (active)"}, {"measurement": "AC50", "setting": "[5]", "value": "49.2 µM (active)"}]}
{"smiles": "C=CCN1C(=O)C(C(C)CC)NC1=S", "note": "(configuration not stated)", "values": [{"measurement": "IC50", "setting": "[15]", "value": "> 50 µM (not active)"}]}
{"smiles": "C=C(C)CN(CC)C(=O)CC1C(=O)NCCN1CC(C)(C)C", "note": "(configuration not stated)", "values": [{"measurement": "IC50", "setting": "[15]", "value": "> 50 µM (not active)"}]}
{"smiles": "COc1cc(CNC2CCCC2)cc(Cl)c1OCc1ccccc1F", "values": [{"measurement": "EC50", "setting": "[16]", "value": "2.01 µM (active)"}, {"measurement": "EC50", "setting": "[17]", "value": "> 60 µM (not active)"}, {"measurement": "EC50", "setting": "[18]", "value": "19.1 µM (active)"}, {"measurement": "EC50", "setting": "[19]", "value": "19.9 µM (active)"}]}
{"smiles": "O=C(C1=C(O)C(=O)N(Cc2ccco2)C1c1ccccc1)c1cccs1", "note": "(configuration not stated)", "values": [{"measurement": "Ki", "setting": "[20]", "value": "35.2 µM (inactive)"}, {"measurement": "AC50", "setting": "[21]", "value": "25.1 µM (inconclusive)"}, {"measurement": "AC50", "setting": "[22]", "value": "14.1 µM (inconclusive)"}]}
{"smiles": "COc1ccc(NC(=O)CN2CCN(c3ccccc3F)CC2)cc1", "values": [{"measurement": "IC50", "setting": "[14]", "value": "> 100 µM (not active)"}]}
